Results reported in PubChem BioAssay AID1919010 (Molecular Pharmacology Branch, DTP, NCI, 2023).

Test system: Hs578T complex spheroid growth, percent test/control
Assay: Anticancer human tumor Hs578T cell line growth inhibition [AhR];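 also: luminescent viability signal as a proxy for spheroid growth; spheroids exposed to agents for one week after three days of growth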
Conditions: for IC50: curve of first compound; for viability, T/C: stronger effect = lower value
From the text: Multicellular complex tumor spheroid response to aryl hydrocarbon receptor antagonists in combination with a variety of drugs and investigational agents in selected tumor cell lines
The current study was undertaken to assess response to aryl hydrocarbon receptor antagonists in combination with standard-of-care drugs and investigational agents in solid tumor complex spheroid models. Complex spheroids include a stromal component modeled by human endothelial cells (HUVEC) and fibroblasts modeled by human mesenchymal stem cells (MSCs). The concentration ranges selected for each drug and investigational agent were based upon clinically achievable concentrations if the clinical Cmax of the agent was known.
Compounds. The drugs and investigational agents: BAY 2416964 (NSC825713), GNF351 (NSC835774), CH-223191 (NSC835775), CPI-455 (NSC825282), aza-TdCyd (NSC777586), decitabine (NSC127716), belinostat (NSC758774), entinostat (NSC756642), pevonedistat (NSC761192), tazemetostat (NSC777109), talazoparib (NSC765396), olaparib (NSC753686), selinexor (NSC780203), nedisertib (M3814, NSC802822), bortezomib (NSC756655), venetoclax (NSC766270), doxorubicin (NSC123127), elimusertib (BAY189344, NSC800525), ceralasertib (AZD6738, NSC777638), TAK-243 (NSC785004), alisertib (NSC759677), etoposide (NSC141540), topotecan (NSC609699), eribulin (NSC707389), gemcitabine (NSC613327), carboplatin (NSC241240), cisplatin (NSC119875), and SN-38 (NSC673596) were obtained from the National Cancer Institute (NCI) Developmental Therapeutics Program Chemical Repository (32). The FDA-approved anticancer drug set is available from the Developmental Therapeutics Program at https://dtp.cancer.gov/organization/dscb/obtaining/available plates.htm. […] The stock solutions were prepared in dimethyl sulfoxide (DMSO, Sigma-Aldrich, St. Louis, MO, cat. D2650), except for the platinum compounds which were prepared in saline (Quality Biological, Gaithersburg, MD, cat. 114-055-101), at 800-fold the tested concentration and stored at -70 degrees C prior to their use. All drugs and investigational agents were tested over a range starting from a high concentration at or near the clinical Cmax and decreasing in half-log increments. If the clinical Cmax for an agent had not been determined, the highest concentration tested was 10 microM (Table 1).
Cell Culture. All cells were maintained in an incubator at 37 degrees C and 5% CO2 with 95% humidity. The PDC lines were cultured according to standard operating procedures established by the NCI PDMR (https://pdmr.cancer.gov). Briefly, all PDCs were thawed and cultured in Matrigel-coated flasks prepared with a working solution of 1X Ham's F-12 nutrient mix, without supplementation (Invitrogen, Waltham, MA, cat. 11765054), 100 U/mL penicillin-streptomycin (Invitrogen, cat. 15140122), and 2.5% Matrigel (Corning Inc., Corning, NY, cat. 354248) for the first three passages. All PDCs were cultured in complete DMEM/F-12 media containing advanced DMEM/F-12 (Invitrogen, cat. 12634028), 4.9% defined fetal bovine serum, heat inactivated (HyClone Laboratories Inc., Logan, UT, cat. SH30070.03HI), 389 ng/mL hydrocortisone (Sigma-Aldrich, cat. H4001), 9.7 ng/mL human EGF recombinant protein (Invitrogen, cat. PHG0313), 23.4 microg/mL adenine (Sigma-Aldrich, cat. A2786), 97.3 U/mL penicillin-streptomycin (Invitrogen, cat. 15140122), 1.9 mM L-glutamine (Invitrogen, cat. 25030081), and 9.7 microM Y-27632 dihydrochloride (Tocris Bioscience, Bristol, United Kingdom, cat. 1254). The PDCs were cultured in complete DMEM/F12 media without 10 microM Y-27632 dihydrochloride for at least two passages prior to the screen. The established cell lines NCI-H1341 and […] were cultured in DMEM/F-12, HEPES (Invitrogen, cat. 11330032), 5% defined fetal bovine serum (HyClone Laboratories Inc., cat. SH30070.03), ITS premix universal culture supplement [insulin (5 microg/mL), transferrin (5 microg/mL), and selenious acid (5 ng/mL)] […]

[1] = second compound 0.1 µM, first compound 0.0316 µM
[2] = second compound 0.1 µM, first compound 0.1 µM
[3] = second compound 0.316 µM, first compound 0.0316 µM
[4] = second compound 0.316 µM, first compound 0.1 µM
[5] = second compound 1 µM, first compound 0.0316 µM
[6] = second compound 1 µM, first compound 0.1 µM
[7] = second compound 3.16 µM, first compound 0.0316 µM
[8] = second compound 3.16 µM, first compound 0.1 µM
[9] = second compound 10 µM, first compound 0.0316 µM
[10] = second compound 10 µM, first compound 0.1 µM
[11] = second compound 0.1 µM, first compound 0.316 µM
[12] = second compound 0.1 µM, first compound 1 µM
[13] = second compound 0.1 µM, first compound 3.16 µM
[14] = second compound 0.1 µM, first compound 10 µM
[15] = second compound 0.316 µM, first compound 0.316 µM
[16] = second compound 0.316 µM, first compound 1 µM
[17] = second compound 0.316 µM, first compound 3.16 µM
[18] = second compound 0.316 µM, first compound 10 µM
[19] = second compound 1 µM, first compound 0.316 µM
[20] = second compound 1 µM, first compound 1 µM
[21] = second compound 1 µM, first compound 3.16 µM
[22] = second compound 1 µM, first compound 10 µM
[23] = second compound 3.16 µM, first compound 0.316 µM
[24] = second compound 3.16 µM, first compound 1 µM
[25] = second compound 3.16 µM, first compound 3.16 µM
[26] = second compound 3.16 µM, first compound 10 µM
[27] = second compound 10 µM, first compound 0.316 µM
[28] = second compound 10 µM, first compound 1 µM
[29] = second compound 10 µM, first compound 3.16 µM
[30] = second compound 10 µM, first compound 10 µM

Compound | IC50 (second compound 0.1 µM) | IC50 (second compound 0.316 µM) | IC50 (second compound 1 µM) | IC50 (second compound 3.16 µM) | IC50 (second compound 10 µM) | viability, T/C [1] | viability, T/C [2] | viability, T/C [3] | viability, T/C [4] | viability, T/C [5] | viability, T/C [6] | viability, T/C [7] | viability, T/C [8] | viability, T/C [9] | viability, T/C [10] | viability, T/C [11] | viability, T/C [12] | viability, T/C [13] | viability, T/C [14] | viability, T/C [15] | also measured
CC[C@@]1(O)C(=O)OCc2c1cc1n(c2=O)Cc2cc3c(CN(C)C)c(O)ccc3nc2-1 + CC(CO)NC(=O)c1cc(-c2ccc(Cl)cc2)nn(-c2cnn(C)c2)c1=O | > 0.1 µM | > 0.1 µM | > 0.1 µM | > 0.1 µM | > 0.1 µM | 83.9% | 82% | 89.6% | 84% | 91.4% | 103% | 82.9% | 86.8% | 84.5% | 83.7% | – | – | – | – | – | viability, T/C (second compound 0.1 µM, first compound 0.000316 µM): 120%; viability, T/C (second compound 0.1 µM, first compound 0.001 µM): 115%; viability, T/C (second compound 0.1 µM, first compound 0.00316 µM): 114%; viability, T/C (second compound 0.1 µM, first compound 0.01 µM): 103%; viability, T/C (second compound 0.316 µM, first compound 0.000316 µM): 112%; viability, T/C (second compound 0.316 µM, first compound 0.001 µM): 110%; viability, T/C (second compound 0.316 µM, first compound 0.00316 µM): 115%; viability, T/C (second compound 0.316 µM, first compound 0.01 µM): 98.9%; viability, T/C (second compound 1 µM, first compound 0.000316 µM): 126%; viability, T/C (second compound 1 µM, first compound 0.001 µM): 123%; viability, T/C (second compound 1 µM, first compound 0.00316 µM): 120%; viability, T/C (second compound 1 µM, first compound 0.01 µM): 109%; viability, T/C (second compound 3.16 µM, first compound 0.000316 µM): 115%; viability, T/C (second compound 3.16 µM, first compound 0.001 µM): 118%; viability, T/C (second compound 3.16 µM, first compound 0.00316 µM): 132%; viability, T/C (second compound 3.16 µM, first compound 0.01 µM): 93.8%; viability, T/C (second compound 10 µM, first compound 0.000316 µM): 110%; viability, T/C (second compound 10 µM, first compound 0.001 µM): 117%; viability, T/C (second compound 10 µM, first compound 0.00316 µM): 110%; viability, T/C (second compound 10 µM, first compound 0.01 µM): 103%
COc1cc(C2c3cc4c(cc3C(OC3OC5COC(C)OC5C(O)C3O)C3COC(=O)C23)OCO4)cc(OC)c1O (stereo not given) + CC(CO)NC(=O)c1cc(-c2ccc(Cl)cc2)nn(-c2cnn(C)c2)c1=O | > 10 µM | > 10 µM | > 10 µM | > 10 µM | > 10 µM | 103% | 109% | 111% | 99.2% | 108% | 123% | 116% | 102% | 83.7% | 88.3% | 87.9% | 79.2% | 81% | 64.9% | 105% | viability, T/C [16]: 83.2%; viability, T/C [17]: 73.8%; viability, T/C [18]: 57.1%; viability, T/C [19]: 88.7%; viability, T/C [20]: 80.1%; viability, T/C [21]: 89.1%; viability, T/C [22]: 60.5%; viability, T/C [23]: 99.9%; viability, T/C [24]: 86.2%; viability, T/C [25]: 79.2%; viability, T/C [26]: 60.7%; viability, T/C [27]: 89.1%; viability, T/C [28]: 76.6%; viability, T/C [29]: 83.4%; viability, T/C [30]: 58.9%
Nc1ccn(C2OC(CO)C(O)C2(F)F)c(=O)n1 (stereo not given) + CC(CO)NC(=O)c1cc(-c2ccc(Cl)cc2)nn(-c2cnn(C)c2)c1=O | > 10 µM | 9.59 µM | > 10 µM | > 10 µM | 0.77 µM | 54.6% | 58.7% | 60.3% | 63.5% | 61.1% | 70.3% | 59.4% | 61.8% | 55.1% | 60.6% | 62.1% | 54% | 51.9% | 52.4% | 52.5% | viability, T/C [16]: 52.3%; viability, T/C [17]: 57.3%; viability, T/C [18]: 47.9%; viability, T/C [19]: 55.3%; viability, T/C [20]: 50.5%; viability, T/C [21]: 57.9%; viability, T/C [22]: 50.4%; viability, T/C [23]: 59.5%; viability, T/C [24]: 54.5%; viability, T/C [25]: 53.6%; viability, T/C [26]: 58.5%; viability, T/C [27]: 47.7%; viability, T/C [28]: 44.6%; viability, T/C [29]: 51.5%; viability, T/C [30]: 49.1%
